# Values joined by “and” are separate entries in the source; they are usually repeats but may differ in a detail not shown here. Identical values can stand only once. Like-named read-outs stand apart in the source and are kept apart here.
# Assays:
# CB1 (rCB1) = CB1 (rCB1) (Rattus norvegicus, UniProt P20272); test: Radioligand competition binding, [3H]-CP-55,940, rat brain membranes
# hCB1 = hCB1 (Homo sapiens, UniProt P21554); test: bioSensAll ebBRET signaling profiling, hCB1; assay type: cell-based; parameters: host or cells: HEK293SL cells, transient PEI transfection; conditions: for Gi1 hCB1 response: Gi1 biosensor; for Gi1 hCB1 / GoB hCB1: single replicate values, FigS6a; for EC50: read-out: EC50 [95% CI]; for Emax: normalized to CP-55,940
# Sequence of hCB1 (P21554 whole entry): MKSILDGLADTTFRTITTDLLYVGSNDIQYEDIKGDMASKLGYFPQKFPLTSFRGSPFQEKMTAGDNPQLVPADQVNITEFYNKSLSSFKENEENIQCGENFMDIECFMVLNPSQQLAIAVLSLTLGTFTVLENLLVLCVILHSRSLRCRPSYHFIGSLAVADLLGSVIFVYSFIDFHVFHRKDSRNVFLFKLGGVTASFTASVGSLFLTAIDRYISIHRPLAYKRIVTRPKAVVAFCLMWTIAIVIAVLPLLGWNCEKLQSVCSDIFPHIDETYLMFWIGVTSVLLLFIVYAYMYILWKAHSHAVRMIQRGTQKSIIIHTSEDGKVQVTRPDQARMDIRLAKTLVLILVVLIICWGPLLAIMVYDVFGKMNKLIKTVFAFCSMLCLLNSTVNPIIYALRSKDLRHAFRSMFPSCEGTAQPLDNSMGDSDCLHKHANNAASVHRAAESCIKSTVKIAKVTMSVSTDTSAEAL
# Sequence of CB1 (rCB1) (P20272 whole entry): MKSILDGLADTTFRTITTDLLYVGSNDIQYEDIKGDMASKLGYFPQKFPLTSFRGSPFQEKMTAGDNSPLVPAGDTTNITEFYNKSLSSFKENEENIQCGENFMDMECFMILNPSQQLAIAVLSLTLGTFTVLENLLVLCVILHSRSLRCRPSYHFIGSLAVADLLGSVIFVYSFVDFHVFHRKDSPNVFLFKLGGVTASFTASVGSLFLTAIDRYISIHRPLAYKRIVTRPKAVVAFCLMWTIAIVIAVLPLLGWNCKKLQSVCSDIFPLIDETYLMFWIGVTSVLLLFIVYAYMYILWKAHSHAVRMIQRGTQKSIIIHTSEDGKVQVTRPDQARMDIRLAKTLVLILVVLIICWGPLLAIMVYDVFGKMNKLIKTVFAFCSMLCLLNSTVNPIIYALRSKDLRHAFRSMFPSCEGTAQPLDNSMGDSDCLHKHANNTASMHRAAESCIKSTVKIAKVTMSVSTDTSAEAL
compound,measurement,setting,value
Cc1cc(C(=O)NC(c2ccccc2)c2ccco2)nn1-c1cccc(C(F)(F)F)c1 (stereo not drawn) [‘1081],pKi [95% CI],CB1 (rCB1); rCB1,6.9 [6.8 – 7.1]
same,Ki,"CB1 (rCB1); read-out: Ki [95% CI], rCB1, [3H]-CP-55,940",116 nM
same,Gi1 hCB1 response,hCB1; Log [Compound] (M) -4.22186,74.944
same,Gi1 hCB1 response,hCB1; Log [Compound] (M) -4.63927,67.9833
same,Gi1 hCB1 response,hCB1; Log [Compound] (M) -5.05788,54.8454
same,Gi1 hCB1 response,hCB1; Log [Compound] (M) -5.47381,47.9296
same,Gi1 hCB1 response,hCB1; Log [Compound] (M) -5.89285,64.2009
same,Gi1 hCB1 response,hCB1; Log [Compound] (M) -6.31878,42.1551
same,Gi1 hCB1 response,hCB1; Log [Compound] (M) -6.72585,23.6233
same,Gi1 hCB1 response,hCB1; Log [Compound] (M) -7.14267,32.464
same,Gi1 hCB1 response,hCB1; Log [Compound] (M) -7.55284,4.129
same,Gi1 hCB1 response,hCB1; Log [Compound] (M) -8,-0.3248
same,Gi1 hCB1 response,hCB1; Log [Compound] (M) -8.22186,3.077
same,Gi1 hCB1 response,hCB1; Log [Compound] (M) -8.39794,0.4809
same,Gi1 hCB1 response,hCB1; Log [Compound] (M) -8.68787,1.913
same,Gi1 hCB1 response,hCB1; Log [Compound] (M) -9.15521,-3.123
same,Gi1 hCB1 response,hCB1; Log [Compound] (M) -9.61989,-0.5486
same,Gi1 hCB1 response,hCB1; Log [Compound] (M) -10.5529,3.637
same,Gi1 hCB1 response,hCB1; Log [Compound] (M) -11.0177,-17.939
same,Gi1 hCB1 response,hCB1; Log [Compound] (M) -11.4949,0.01089
same,Gi1 hCB1 response,hCB1; Log [Compound] (M) -11.9208,-4.7116
same,Gi1 hCB1 response,hCB1; Log [Compound] (M) -12.3979,-3.011
same,Gi1 hCB1 response,"hCB1; Log [Compound] (M) -13, individual replicate values",10.3511 and -8.673
same,Gi1 hCB1,hCB1; Log [Compound] (M) -4.22186,52.0891
same,GoB hCB1,hCB1; Log [Compound] (M) -4.22186,46.0629
same,Gi1 hCB1,hCB1; Log [Compound] (M) -4.63927,50.1467
same,GoB hCB1,hCB1; Log [Compound] (M) -4.63927,47.4116
same,Gi1 hCB1,hCB1; Log [Compound] (M) -5.05788,48.6204
same,GoB hCB1,hCB1; Log [Compound] (M) -5.05788,38.1682
same,Gi1 hCB1,hCB1; Log [Compound] (M) -5.47381,43.0088
same,GoB hCB1,hCB1; Log [Compound] (M) -5.47381,38.8336
same,Gi1 hCB1,hCB1; Log [Compound] (M) -5.89285,42.6234
same,GoB hCB1,hCB1; Log [Compound] (M) -5.89285,33.6364
same,Gi1 hCB1,hCB1; Log [Compound] (M) -6.31878,36.4105
same,GoB hCB1,hCB1; Log [Compound] (M) -6.31878,34.6075
same,Gi1 hCB1,hCB1; Log [Compound] (M) -6.72585,32.0322
same,GoB hCB1,hCB1; Log [Compound] (M) -6.72585,26.2812
same,Gi1 hCB1,hCB1; Log [Compound] (M) -7.14267,17.1706
same,GoB hCB1,hCB1; Log [Compound] (M) -7.14267,21.1739
same,Gi1 hCB1,hCB1; Log [Compound] (M) -7.55284,12.4531
same,GoB hCB1,hCB1; Log [Compound] (M) -7.55284,14.1424
same,Gi1 hCB1,hCB1; Log [Compound] (M) -8,6.533
same,GoB hCB1,hCB1; Log [Compound] (M) -8,4.935
same,Gi1 hCB1,hCB1; Log [Compound] (M) -8.22186,6.209
same,GoB hCB1,hCB1; Log [Compound] (M) -8.22186,1.626
same,Gi1 hCB1,hCB1; Log [Compound] (M) -8.39794,4.544
same,GoB hCB1,hCB1; Log [Compound] (M) -8.39794,0.2593
same,Gi1 hCB1,hCB1; Log [Compound] (M) -8.68787,3.434
same,GoB hCB1,hCB1; Log [Compound] (M) -8.68787,-1.683
same,Gi1 hCB1,hCB1; Log [Compound] (M) -9.15521,3.357
same,GoB hCB1,hCB1; Log [Compound] (M) -9.15521,-3.445
same,Gi1 hCB1,hCB1; Log [Compound] (M) -9.61989,1.492
same,GoB hCB1,hCB1; Log [Compound] (M) -9.61989,-0.6039
same,Gi1 hCB1,hCB1; Log [Compound] (M) -10.0969,1.199
same,GoB hCB1,hCB1; Log [Compound] (M) -10.0969,-2.51
same,Gi1 hCB1,hCB1; Log [Compound] (M) -10.5529,3.496
same,GoB hCB1,hCB1; Log [Compound] (M) -10.5529,-5.459
same,Gi1 hCB1,hCB1; Log [Compound] (M) -11.0177,1.214
same,GoB hCB1,hCB1; Log [Compound] (M) -11.0177,-3.661
same,Gi1 hCB1,hCB1; Log [Compound] (M) -11.4949,1.523
same,GoB hCB1,hCB1; Log [Compound] (M) -11.4949,0.9786
same,Gi1 hCB1,hCB1; Log [Compound] (M) -11.9208,2.833
same,GoB hCB1,hCB1; Log [Compound] (M) -11.9208,3.047
same,Gi1 hCB1,hCB1; Log [Compound] (M) -12.3979,0.3511
same,GoB hCB1,hCB1; Log [Compound] (M) -12.3979,-1.071
same,Gi1 hCB1,hCB1; Log [Compound] (M) -12.8861,2.432
same,GoB hCB1,hCB1; Log [Compound] (M) -12.8861,-2.402
same,Gi1 hCB1,hCB1; Log [Compound] (M) -13,2.448 and 3.003
same,GoB hCB1,hCB1; Log [Compound] (M) -13,-0.01046 and 0.7448
same,pEC50 [95% CI],hCB1; hCB1 Gi1,6.8 [6.7 – 6.9]
same,pEC50 [95% CI],hCB1; hCB1 GoB,7.0 [6.8 – 7.3]
same,pEC50 [95% CI],hCB1; hCB1 Gz,6.7 [6.2 – 7.1]
same,EC50,hCB1; hCB1 Gi1,150 nM
same,EC50,hCB1; hCB1 GoB,91.7 nM
same,EC50,hCB1; hCB1 Gz,225 nM
same,Emax,"hCB1; read-out: Emax [95% CI], hCB1 Gi1",49%
same,Emax,"hCB1; read-out: Emax [95% CI], hCB1 GoB",45%
same,Emax,"hCB1; read-out: Emax [95% CI], hCB1 Gz",72%

# Reference: article PMC11882969 (Nature Communications, 2025)
